Type in all cases: physicochemical
Data set [1] in a line: oxidation potential E2 of radical X by laser flash photolysis. The note with it: Table H; model compound, A and L replaced by alkyl. The method in brief:
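Radical X· generated by fragmentation of X-Y·+, formed via 410 nm laser-excited cyanoanthracene (ca. 2×10^-5–10^-4 M) with biphenyl (ca. 0.1 M) cosensitiser and X-Y (ca. 10^-3 M) in acetonitrile or 80:20 acetonitrile/water. E2 bracketed by observing second-acceptor reduction (DCA −0.91 V, TriCA −0.67 V, TCA −0.44 V) by transient absorption near 705–715 nm.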

Data set [2] is described as follows: oxidation potential E1 by cyclic voltammetry. The note with it: for E1 (V) for XY moiety: Table H, model compound, A and L replaced by alkyl. The procedure, abridged:
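Compound in 80:20 (v/v) acetonitrile/water with 0.1M lithium perchlorate, nitrogen-purged 10 minutes. Glassy carbon working, platinum wire counter and saturated calomel reference electrodes; 25° C, sweep rate 0.1 V/sec. E1 is the voltammetric peak potential vs. SCE.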

Data set [3] can be described thus: fragmentation rate constant kfr by laser flash photolysis. The following applies: Table H; model compound, A and L replaced by alkyl. The procedure, abridged: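 DCA excited by laser in presence of biphenyl and ca. 10^-2 M donor generates X-Y radical cation; its decay was monitored at mostly 470-530 nm. Run in acetonitrile with 20% water, mostly at room temperature, some rates extrapolated from temperature dependence; oxygen purging used for decays below 10^6 s^-1.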

Structures can show the parent of a compound that is named as a salt.

As to `Cc1ccc(N(CCC(=O)Nc2cccc(-n3nnnc3S)c2)C(C)C(=O)O)cc1` (stereo not drawn) [PMT-1], the “E2 (V) for XY moiety” value in data set [1] was less than -0.9 V. Besides, in data set [2], the “E1 (V) for XY moiety” value is 0.34 V. Moreover, in data set [3], the “kfr (s^-1) for XY moiety” value was greater than 2e+07 s⁻¹.

For the compound `CCSCCN(c1ccc(C)cc1)[C@@H](C)C(=O)[O-].[Na+]` [Compound S-3, N-(4-Methylphenyl)-N-(2-ethylthio-ethyl)alanine sodium salt], in data set [1], the “E2 (V) for XY moiety” value is reported as less than -0.9 V. For the same compound, the “E1 (V) for XY moiety” value in data set [2] was 0.34 V. Also, the figures for the “E1 (V)” value in data set [2] (Table II), in data set [2] (Table III) and in data set [2] (Table X) were 0.47 V, 0.38 V and 0.38 V, respectively. Also, the “kfr (s^-1) for XY moiety” value in data set [3] is 6e+07 s⁻¹.

For the compound `CCSCCN(c1ccc(C)cc1)C(CC(=O)O)C(=O)O` (stereo not drawn) [Compound S-8], the “E2 (V) for XY moiety” value in data set [1] is less than -0.9 V. Moreover, the “E1 (V) for XY moiety” value in data set [2] came to 0.38 V. The “E1 (V)” value in data set [2] (Table III) and in data set [2] (Table X) was 0.45 V each time. For the same compound, the “kfr (s^-1) for XY moiety” value in data set [3] worked out at 1.3e+07 s⁻¹.

For `CCSCCN(c1ccc(Cl)cc1)C(C)C(=O)O` (stereo not drawn) [Compound S-12, N-(4-Chlorophenyl)-N-(2-thioethyl-ethyl)alanine sodium salt], the “E2 (V) for XY moiety” value in data set [1] was less than -0.9 V. Besides, the “E1 (V) for XY moiety” value in data set [2] is recorded as 0.40 V. The “E1 (V)” value in data set [2] (Table IV) and in data set [2] (Table XI) was 0.51 V in each case. In data set [3], the “kfr (s^-1) for XY moiety” value is greater than 2e+07 s⁻¹.

Turning to `CCSCCN(c1ccccc1)C(CC(=O)O)C(=O)O` (stereo not drawn) [Compound S-14], the “E2 (V) for XY moiety” value in data set [1] was less than -0.9 V. In data set [2], the “E1 (V) for XY moiety” value is given as 0.48 V. Also, the “E1 (V)” value in data set [2] (Table IX) and in data set [2] (Table XI) was 0.51 V in each case. Besides, the “kfr (s^-1) for XY moiety” value in data set [3] is greater than 2e+07 s⁻¹.

Turning to `CC(C(=O)O)N(CCC(=O)Nc1cccc(-n2nnnc2S)c1)c1ccccc1` (stereo not drawn) [PMT-2], the “E2 (V) for XY moiety” value in data set [1] was less than -0.9 V. The “E1 (V) for XY moiety” value in data set [2] was determined as 0.43 V. In data set [3], the “kfr (s^-1) for XY moiety” value was greater than 2e+07 s⁻¹.

Consider `CCSCCN(c1ccc(C(=O)O)cc1)C(C)C(=O)O` (stereo not drawn) [Compound S-11], for which the “E2 (V) for XY moiety” value in data set [1] is less than -0.9 V. The “E1 (V) for XY moiety” value in data set [2] came out at 0.54 V. For the same compound, the “E1 (V)” value turned out to be 0.55 V in data set [2] (Table IV), 0.54 V in data set [2] (Table IX) and 0.54 V in data set [2] (Table XI). In addition, the “kfr (s^-1) for XY moiety” value in data set [3] is greater than 2e+07 s⁻¹.

For `CCSCCN(c1ccccc1)C(C)C(=O)O` (stereo not drawn) [Compound S-9, N-(Phenyl)-N-(2-thioethyl-ethyl)alanine sodium salt], in data set [1], the “E2 (V) for XY moiety” value was less than -0.9 V. The “E1 (V) for XY moiety” value in data set [2] was 0.43 V. The “E1 (V)” value in data set [2] (Table III), in data set [2] (Table IV) and in data set [2] (Table X) was 0.43 V in each case. For the same compound, in data set [3], the “kfr (s^-1) for XY moiety” value is greater than 2e+07 s⁻¹.

For the compound `CCSCCN(c1cccc(C(N)=O)c1)C(C)C(=O)O` (stereo not drawn) [Compound S-13], the “E2 (V) for XY moiety” value in data set [1] is recorded as less than -0.9 V. For the same compound, the “E1 (V) for XY moiety” value in data set [2] was 0.52 V. Besides, the “E1 (V)” value in data set [2] (Table IV), in data set [2] (Table IX) and in data set [2] (Table XI) was 0.53 V in each case. In data set [3], the “kfr (s^-1) for XY moiety” value was greater than 2e+07 s⁻¹.

These data come from patent US5747235A, “Silver halide light sensitive emulsion layer having enhanced photographic sensitivity” (Eastman Kodak Company, priority 1996, dated 1998).
